Assay results published in patent US20080262031A1, “4-Aminoquinoline Derivatives as Antimalarials” (CTG PHARMA S.R.L., priority 2005, published 2008).
In brackets after ≈: the same amount, converted by molar mass. Like-named read-outs stand apart in the source and are kept apart here.

Key:
[1] = system: chloroquine-sensitive (CQ-S) Plasmodium falciparum strain D10; test: in vitro antimalarial activity on chloroquine-sensitive strain D10; type: cell-based
[2] = system: chloroquine-resistant (CQ-R) Plasmodium falciparum strain W2; test: in vitro antimalarial activity on chloroquine-resistant strain W2; type: cell-based
[3] = P. falciparum strain D10, chloroquine-sensitive, n = 4 ± SD, read-out: D10 (CQ-S) IC50
[4] = P. falciparum strain W2, chloroquine-resistant, n = 4 ± SD, read-out: W2 (CQ-R) IC50

SMILES | IC50 [1, 3] | IC50 [2, 4] | IC50 ([1]; D10, read-out: D10 (CQ-S) IC50) | IC50 ([2]; W2, read-out: W2 (CQ-R) IC50)
Clc1ccc2c(NCCC34CCCN3CCC4)ccnc2c1 [Example 1, N-(7-chloro-quinolin-4-yl)-2-(tetrahydropyrrolizin-7a-yl)-ethylamine] | 0.0017 ± 0.0014 µg/mL (≈ 0.00538 µM) | 0.0173 ± 0.0024 µg/mL (≈ 0.0548 µM) |  | 
CCN(CC)CCCC(C)Nc1ccnc2cc(Cl)ccc12 (stereo not shown) [Chloroquine, chloroquine, reference compound] |  |  | 0.0097 ± 0.0036 µg/mL (≈ 0.0303 µM) | 0.17 ± 0.0413 µg/mL (≈ 0.532 µM)
Clc1ccc2c(NCC34CCCN3CCC4)ccnc2c1 [Example 2, N-(7-chloro-quinolin-4-yl)-(tetrahydropyrrolizin-7a-yl)-methylamine] | 0.0092 ± 0.0022 µg/mL (≈ 0.0305 µM) | 0.0087 ± 0.0035 µg/mL (≈ 0.0288 µM) |  | 
Oc1cc(Nc2ccnc3cc(Cl)ccc23)ccc1CNCCC12CCCN1CCC2 [Example 4] | 0.0172 ± 0.0019 µg/mL (≈ 0.0394 µM) | < 0.08 µg/mL |  | 
Oc1cc(Nc2ccnc3cc(Cl)ccc23)ccc1CNC[C@@H]1CCCN2CCCC[C@H]12 [Example 3] | 0.0103 ± 0.0019 µg/mL (≈ 0.0228 µM) | 0.0114 ± 0.0021 µg/mL (≈ 0.0253 µM) |  | 
